Data: PMC7673538 (PLoS Biology, 2020)
“And” between values parts separate entries of the source, which are not always exact repeats. Identical values can stand only once. Like-named read-outs stand apart in the source and are kept apart here.

Legend:
[1] = test system: EV-A71; experiment: microbe, parasite or virus in culture; type: cell-based, enterovirus A71; details: Enterovirus A
[2] = test system: CV-B3; experiment: microbe, parasite or virus in culture; type: cell-based, coxsackievirus B3; details: for EC50: Enterovirus B
[3] = in vitro; details: human
[4] = test system: CV-B3 (strain Nancy); type: cell-based, coxsackievirus B3
[5] = test system: CV-A24v; experiment: microbe, parasite or virus in culture; type: cell-based, coxsackievirus A24v; details: for EC50: Coxsackievirus
[6] = test system: CV-B3; experiment: microbe, parasite or virus in culture; type: cell-based, coxsackievirus B3; details: Enterovirus B, CVB3, BGM
[7] = test system: HeLa R19 cells
[8] = test system: representative EVs and RVs; type: cell-based
[9] = test system: CV-A24; experiment: microbe, parasite or virus in culture; type: cell-based, coxsackievirus A24; details: Enterovirus C

`COc1ccc(N(Cc2ccc(F)cc2)C(=O)c2ccco2)cc1` [Compound 1, N-(4-fluorobenzyl)-N-(4-methoxyphenyl)furan-2-carboxamide] gave an EC50 ([1]; EVA71, HeLa R19, read-out: EC50 EV-A71 Experiment 1) greater than 30 µM, an EC50 ([1]; EVA71, HeLa R19, read-out: EC50 EV-A71 Experiment 2) greater than 30 µM and an EC50 ([1]; EVA71, HeLa R19, read-out: EC50 EV-A71 strain BrCr) greater than 30 µM. The EC50 ([1]; EVA71, HeLa R19, read-out: EC50 EV-A71 strain TW/2728/04) was greater than 30 µM, the EC50 ([1]; EVA71, HeLa R19, read-out: EC50 EV-A71 strain TW/2945/98) was greater than 30 µM and the EC50 ([1]; EVA71, HeLa R19, read-out: EC50 EV-A71 strain TW/70811/08) was greater than 30 µM. The EC50 ([1]; EVA71, HeLa R19, read-out: EC50 EV-A71 strain TW/72232/04) was greater than 30 µM, the EC50 ([1]; EVA71, HeLa R19, read-out: EC50 EV-A71 strain TW/96016/08) was greater than 30 µM and the “antiviral activity against CV-B3 (in words)” value [2] was “inhibited”. The “Figure 7 dose-response raw data, CV-B3 (triplicate values)” value (from here on “Figure 7 dose-response raw data, CV-B3”) ([2]; Concentration 0.001 µM) was 8.4087 and 12.9113 and 13.3731, the “Figure 7 dose-response raw data, CV-B3” value ([2]; Concentration 0.0046 µM) was 8.524 and 14.1813 and 13.8349 and the “Figure 7 dose-response raw data, CV-B3” value ([2]; Concentration 0.0137 µM) was 8.178 and 10.6023 and 11.4104. The “Figure 7 dose-response raw data, CV-B3” value ([2]; Concentration 0.0412 µM) was 8.755 and 10.1405 and 13.8349, the “Figure 7 dose-response raw data, CV-B3” value ([2]; Concentration 0.1235 µM) was 8.6396 and 9.794 and 10.7177 and the “Figure 7 dose-response raw data, CV-B3” value ([2]; Concentration 0.3704 µM) was 31.7298 and 16.0285 and 26.5345. The “Figure 7 dose-response raw data, CV-B3” value ([2]; Concentration 1.1111 µM) was 69.1798 and 64.4511 and 60.4699, the “Figure 7 dose-response raw data, CV-B3” value ([2]; Concentration 3.3333 µM) was 108.671 and 85.22 and 102.264 and the “Figure 7 dose-response raw data, CV-B3” value ([2]; Concentration 10 µM) was 111.619 and 82.0162 and 97.2661. The EC50 ([2]; CVB3, HeLa R19) was 1920 ± 40 nM, the EC50 ([2]; CVB3, HeLa R19, read-out: CV-B3 EC50 Average) was 1920 nM and the EC50 ([2]; CVB3, HeLa R19, read-out: CV-B3 Exp 1 EC50) was 1870 nM. The EC50 ([2]; CVB3, HeLa R19, read-out: CV-B3 Exp2 EC50) was 1960 nM, the EC50 ([2]; CVB3, HeLa R19, read-out: EC50 CV-B3) was 1710 ± 70 nM and the EC50 ([2]; CVB3, HeLa R19, read-out: EC50 CVB3 Experiement 3) was 1780 nM. The EC50 ([2]; CVB3, HeLa R19, read-out: EC50 CVB3 Experiment 1) was 1720 nM, the EC50 ([2]; CVB3, HeLa R19, read-out: EC50 CVB3 Experiment 2) was 1620 nM and the EC50 ([2]; CVB3, HeLa R19, read-out: EC50 HelaR19 Average) was 1760 nM. For the same compound, the EC50 ([2]; CVB3, HeLa R19, read-out: Exp 1 EC50 HelaR19) was 1650 nM, the EC50 ([2]; CVB3, HeLa R19, read-out: Exp 2 EC50 HelaR19) was 1870 nM and the CC50 ([3]; CC50) was greater than 30 µM. For the same compound, the CC50 ([3]; CC50 Average) was greater than 30 µM, the CC50 ([3]; CC50 Experiement 3) was greater than 30 µM and the CC50 ([3]; CC50 Experiment 1) was greater than 30 µM. It also gave a CC50 ([3]; CC50 Experiment 2) greater than 30 µM, a CC50 ([3]; CC50 HelaR19 Average) of 43.9 µM and a CC50 ([3]; Exp 1 CC50) greater than 30 µM. For the same compound, the CC50 ([3]; Exp 1 CC50 HelaR19) was 40.4 µM, the CC50 ([3]; Exp2 CC50) was greater than 30 µM and the CC50 ([3]; Exp 2 CC50 HelaR19) was 47.4 µM. The “virus titer, TCID50/ml (Figure 2A)” value ([4]; compound concentration 1 µM) was 1000000000 TCID50/ml, the “virus titer, TCID50/ml (Figure 2A)” value ([4]; compound concentration 10 µM) was 31622.8 TCID50/ml and 16982.4 TCID50/ml and 21379.6 TCID50/ml and the “Figure 7 dose-response raw data, CV-A24v (triplicate values)” value (“Figure 7 dose-response raw data, CV-A24v” for short) ([5]; Concentration 0.0046 µM) was 10.497 and 8.759 and 8.625. The “Figure 7 dose-response raw data, CV-A24v” value ([5]; Concentration 0.0137 µM) was 9.388 and 8.898 and 11.4747, the “Figure 7 dose-response raw data, CV-A24v” value ([5]; Concentration 0.0412 µM) was 9.388 and 8.898 and 11.4747 and the “Figure 7 dose-response raw data, CV-A24v” value ([5]; Concentration 0.1235 µM) was 8.529 and 8.161 and 15.8928. For the same compound, the “Figure 7 dose-response raw data, CV-A24v” value ([5]; Concentration 0.3704 µM) was 10.8611 and 15.1565 and 15.6474, the “Figure 7 dose-response raw data, CV-A24v” value ([5]; Concentration 1.1111 µM) was 10.0021 and 16.3837 and 13.9292 and the “Figure 7 dose-response raw data, CV-A24v” value ([5]; Concentration 11.1111 µM) was 8.182 and 7.259 and 9.382. The EC50 ([5]; HeLa R19, read-out: EC50 CV-A24v strain 110386) was greater than 30 µM, the EC50 ([5]; HeLa R19, read-out: EC50 CV-A24v strain 110389) was greater than 30 µM and the EC50 ([5]; HeLa R19, read-out: EC50 CV-A24v strain 110390) was greater than 30 µM. It also gave an EC50 ([5]; HeLa R19, read-out: EC50 CV-A24v strain 110392) greater than 30 µM, an EC50 ([6]; read-out: EC50 BGM Average) of 1660 nM and an EC50 ([6]; read-out: Exp 1 EC50 BGM) of 1430 nM. For the same compound, the EC50 ([6]; read-out: Exp 2 EC50 BGM) was 1890 nM, the “cytotoxic effect (in words)” value [7] was “did not show any adverse cytotoxic effect” and the “inhibition of contemporary/clinical isolates of EV-A71, CV-A24v and EV-D68 (in words)” value [8] was “only inhibited the contemporary strains of EV-D68”. It also gave an EC50 ([9]; CVA24, HeLa R19, read-out: EC50 CV-A24) greater than 30 µM, an EC50 ([9]; CVA24, HeLa R19, read-out: EC50 CV-A24 Average) greater than 30 µM and an EC50 ([9]; CVA24, HeLa R19, read-out: EC50 CV-A24 Experiement 3) greater than 30 µM. It also gave an EC50 ([9]; CVA24, HeLa R19, read-out: EC50 CV-A24 Experiment 1) greater than 30 µM, an EC50 ([9]; CVA24, HeLa R19, read-out: EC50 CV-A24 Experiment 2) greater than 30 µM and an EC50 ([9]; CVA24, HeLa R19, read-out: EC50 CV-A24 strain Joseph) greater than 30 µM.
